Reference: the NIST ThermoML archive (doi:10.1021/je030101n)
± gives the expanded uncertainty stated by the source.

Test: xn = mol fraction of the nth substance listed
Conditions: 101.3 kPa, Liquid; for viscosity: Capillary tube (Ostwald / Ubbelohde) method; for mass density: Pycnometric method

Nc1ccccc1 [aniline] + CN(C)C=O
Conditions	mass density, 298.15 K [kg/m3]	mass density, 303.15 K [kg/m3]	mass density, 308.15 K [kg/m3]	mass density, 313.15 K [kg/m3]	viscosity, 298.15 K [mPa·s]	viscosity, 303.15 K [mPa·s]	viscosity, 308.15 K [mPa·s]	viscosity, 313.15 K [mPa·s]
x2 = 0	1017.2 ± 0.6	1012.9 ± 0.6	1008.6 ± 0.6	1004.2 ± 0.6	3.69 ± 0.028	3.19 ± 0.024	2.8 ± 0.021	2.42 ± 0.018
x2 = 0.1293	1010.3 ± 0.5	1006 ± 0.5	1001.7 ± 0.5	997.3 ± 0.5	3.296 ± 0.024	2.864 ± 0.021	2.521 ± 0.018	2.186 ± 0.016
x2 = 0.2582	1005.8 ± 0.5	1001.5 ± 0.5	997.2 ± 0.5	992.9 ± 0.5	2.908 ± 0.02	2.54 ± 0.018	2.242 ± 0.016	1.952 ± 0.014
x2 = 0.3548	1000.5 ± 0.4	996.2 ± 0.4	991.9 ± 0.4	987.6 ± 0.5	2.621 ± 0.018	2.298 ± 0.015	2.034 ± 0.014	1.779 ± 0.012
x2 = 0.4642	993.9 ± 0.4	989.5 ± 0.4	985.1 ± 0.4	980.7 ± 0.4	2.3 ± 0.015	2.025 ± 0.013	1.8 ± 0.012	1.583 ± 0.011
x2 = 0.5537	987.6 ± 0.4	983.2 ± 0.4	978.9 ± 0.4	974.5 ± 0.4	2.04 ± 0.013	1.803 ± 0.012	1.611 ± 0.01	1.423 ± 0.009
x2 = 0.6614	978.8 ± 0.3	974.3 ± 0.3	969.8 ± 0.4	965.3 ± 0.4	1.731 ± 0.011	1.543 ± 0.01	1.387 ± 0.009	1.237 ± 0.008
x2 = 0.7558	969.2 ± 0.3	964.8 ± 0.3	960.4 ± 0.3	955.9 ± 0.3	1.466 ± 0.009	1.319 ± 0.008	1.194 ± 0.008	1.079 ± 0.007
x2 = 0.8302	961.4 ± 0.3	957 ± 0.3	952.6 ± 0.3	948.1 ± 0.3	1.257 ± 0.008	1.145 ± 0.007	1.044 ± 0.007	0.954 ± 0.006
x2 = 0.9123	952.3 ± 0.3	947.7 ± 0.3	943.1 ± 0.3	938.4 ± 0.3	1.038 ± 0.007	0.955 ± 0.006	0.88 ± 0.006	0.819 ± 0.006

N#Cc1ccccc1 [benzonitrile] + CN(C)C=O
Conditions	mass density, 298.15 K [kg/m3]	mass density, 303.15 K [kg/m3]	mass density, 308.15 K [kg/m3]	mass density, 313.15 K [kg/m3]	viscosity, 298.15 K [mPa·s]	viscosity, 303.15 K [mPa·s]	viscosity, 308.15 K [mPa·s]	viscosity, 313.15 K [mPa·s]
x2 = 0	1000.9 ± 0.6	996.4 ± 0.6	991.9 ± 0.6	987.2 ± 0.6	1.171 ± 0.009	1.126 ± 0.009	1.068 ± 0.009	1.001 ± 0.008
x2 = 0.1335	995.4 ± 0.5	990.9 ± 0.5	986.4 ± 0.5	981.7 ± 0.5	1.17 ± 0.009	1.124 ± 0.009	1.064 ± 0.008	0.99 ± 0.008
x2 = 0.1981	992.7 ± 0.5	988.2 ± 0.5	983.7 ± 0.5	979 ± 0.5	1.169 ± 0.009	1.119 ± 0.008	1.056 ± 0.008	0.985 ± 0.008
x2 = 0.3191	987.4 ± 0.4	982.9 ± 0.4	978.4 ± 0.5	973.8 ± 0.5	1.152 ± 0.008	1.097 ± 0.008	1.033 ± 0.008	0.963 ± 0.007
x2 = 0.3873	984.3 ± 0.4	979.8 ± 0.4	975.3 ± 0.4	970.6 ± 0.4	1.134 ± 0.008	1.078 ± 0.008	1.015 ± 0.007	0.948 ± 0.007
x2 = 0.4907	979 ± 0.4	974.5 ± 0.4	970 ± 0.4	965.3 ± 0.4	1.099 ± 0.008	1.042 ± 0.007	0.98 ± 0.007	0.918 ± 0.007
x2 = 0.6061	972.2 ± 0.4	967.7 ± 0.4	963.2 ± 0.4	958.5 ± 0.4	1.049 ± 0.007	0.992 ± 0.007	0.932 ± 0.007	0.875 ± 0.006
x2 = 0.7176	965.2 ± 0.3	960.6 ± 0.3	956 ± 0.3	951.2 ± 0.3	0.992 ± 0.007	0.936 ± 0.006	0.879 ± 0.006	0.825 ± 0.006
x2 = 0.7997	959.6 ± 0.3	955 ± 0.3	950.4 ± 0.3	945.6 ± 0.3	0.943 ± 0.006	0.889 ± 0.006	0.834 ± 0.006	0.781 ± 0.006
x2 = 0.9209	950.6 ± 0.3	946 ± 0.3	941.4 ± 0.3	936.5 ± 0.3	0.862 ± 0.006	0.811 ± 0.006	0.761 ± 0.005	0.715 ± 0.005
